Assay results: patent publication US9995734B2, “Human T cell line assay for evaluating the immunologic identity of glatiramer acetate preparations” (Mylan Inc., priority 2013, dated 2018)

Tested on: Donor 1 COP T-Cell Lines
Test: Multiplex bead cytokine assay (FlowCytoMix), Donor 1 COP T-cell lines
Type: cell-based, human
Method: Culture medium was removed from cultures prepared as for proliferation assay and utilized to measure cytokine production. In most cases culture medium was collected 18-24 hours after mixing T-cells, APC, and stimulating antigen. Cytokine production was measured by ELISA or bead assay. For measuring cytokine production, 100-150 μL culture medium (100 μL if culture was to be continued, otherwise 150 μL) was removed from each well. In some cases, the culture was continued 48 hours, for a total of 72 hours of culture, and the proliferative response measured.
The concentration of multiple cytokines was measured simultaneously using FlowCytoMix™ kits (eBioscience, San Diego Calif.). These are fluorescent bead based assays consisting of beads conjugated to anti cytokine antibodies. Beads specific for each cytokine are distinguished by size and fluorescence at 670 run. Cytokine bound to each bead is detected using a phycoerythrin conjugated antibody so that the fluorescence at 585 nm reflects the concentration of cytokine in the sample. Two kits were utilized which measured different cytokine panels. The TH1/TH2 kit measures IFN-γ, IL-1β, IL-2, IL-4, IL-5, IL-6, IL-8, IL-10, IL-12p70, TNF-α (TNF) and TNF-β (LT). The TH1/TH2/TH9/TH17/TH22 kit measures […], IL-1β, IL-2, IL-4, IL-5, IL-6, IL-9, IL-10, IL-12p70, IL-13, IL-17, IL-22, and TNF-α (TNF). Both kits were used following the manufacturer's instructions.
IL-12p70, IFN-γ, IL-2, IL-10, IL-8, IL-6, IL-5, IL-4, IL-1β, TNF-α (TNF), and TNF-β (LT) secretion were measured in response to stimulation with 1, 3, or 10 μg/mL GMA, or 1, 3, or 10 μg/mL COP, as well as a no-antigen control and an MBP control, in the presence of autologous EBV-transformed B-LCL.

[1] = 222-1C5, 1 μg/mL, 24 hours after Day 56 restimulation
[2] = 222-1C5, 3 μg/mL, 24 hours after Day 56 restimulation
[3] = 222-1C5, 10 μg/mL, 24 hours after Day 56 restimulation
[4] = 222-1C5, 10 μg/mL, Day 34 supernatants
[5] = 222-1H12, 10 μg/mL, Day 34 supernatants
[6] = 222-2B8, 1 μg/mL, 24 hours after Day 56 restimulation
[7] = 222-2B8, 3 μg/mL, 24 hours after Day 56 restimulation
[8] = 222-2B8, 10 μg/mL, 24 hours after Day 56 restimulation
[9] = 222-2D2, 10 μg/mL, Day 34 supernatants
[10] = 222-2D8, 10 μg/mL, Day 34 supernatants
[11] = 222-2E1, 1 μg/mL, 24 hours after Day 56 restimulation
[12] = 222-2E1, 3 μg/mL, 24 hours after Day 56 restimulation
[13] = 222-2E1, 10 μg/mL, 24 hours after Day 56 restimulation
[14] = 222-B11 (so in the source), 1 μg/mL, 24 hours after Day 56 restimulation
[15] = 222-B11 (so in the source), 3 μg/mL, 24 hours after Day 56 restimulation
[16] = 222-B11 (so in the source), 10 μg/mL, 24 hours after Day 56 restimulation

glatiramer acetate [GMA] was tested, and the IFN-γ [1] was 181 pg/mL, the IL-2 [1] was 30 pg/mL and the IL-5 [1] was 0 pg/mL. The IL-10 [1] was 11 pg/mL, the IL-13 [1] was 154 pg/mL and the IL-22 [1] was 39 pg/mL. It also gave a TNF-α [1] of 3 pg/mL, an IFN-γ [2] of 325 pg/mL and an IL-2 [2] of 83 pg/mL. The IL-5 [2] was 0 pg/mL, the IL-10 [2] was 38 pg/mL and the IL-13 [2] was 316 pg/mL. The IL-22 [2] was 101 pg/mL, the TNF-α [2] was 72 pg/mL and the IFN-γ [3] was 664 pg/mL. For the same substance, the IL-2 [3] was 0 pg/mL, the IL-5 [3] was 0 pg/mL and the IL-10 [3] was 55 pg/mL. It also gave an IL-13 [3] of 942 pg/mL, an IL-22 [3] of 0 pg/mL and a TNF-α [3] of 80 pg/mL. For the same substance, the IFN-γ [4] was 511.42 pg/mL, the IL-1β [4] was 94.12 pg/mL and the IL-2 [4] was 185.35 pg/mL. The IL-5 [4] was 67.83 pg/mL, the IL-8 [4] was “<= 0 pg/mL” and the IL-10 [4] was 77.88 pg/mL. It also gave a TNF-α [4] of 31.35 pg/mL, a TNF-β [4] of 29.94 pg/mL and an IFN-γ [5] of 3138 pg/mL. It also gave an IL-1β [5] of 20 pg/mL, an IL-2 [5] of 152 pg/mL and an IL-4 [5] of 99 pg/mL. For the same substance, the IL-5 [5] was 336 pg/mL, the IL-10 [5] was 234 pg/mL and the TNF-α [5] was 83 pg/mL. For the same substance, the TNF-β [5] was 102 pg/mL, the IFN-γ [6] was 1.88 pg/mL and the IL-2 [6] was 0 pg/mL. It also gave an IL-5 [6] of 0 pg/mL, an IL-10 [6] of 0 pg/mL and an IL-13 [6] of 183.09 pg/mL. For the same substance, the IL-22 [6] was 0 pg/mL, the TNF-α [6] was 0 pg/mL and the IFN-γ [7] was 44.52 pg/mL. It also gave an IL-2 [7] of 1.6 pg/mL, an IL-5 [7] of 78.29 pg/mL and an IL-10 [7] of 1.8 pg/mL. It also gave an IL-13 [7] of 1214.45 pg/mL, an IL-22 [7] of 63.98 pg/mL and a TNF-α [7] of 0 pg/mL. The IFN-γ [8] was 140.65 pg/mL, the IL-2 [8] was 0 pg/mL and the IL-5 [8] was 400.46 pg/mL. The IL-10 [8] was 41 pg/mL, the IL-13 [8] was 3162.51 pg/mL and the IL-22 [8] was 124.15 pg/mL. It also gave a TNF-α [8] of 96.57 pg/mL, an IFN-γ [9] of 53.75 pg/mL and an IL-1β [9] of 103.85 pg/mL. For the same substance, the IL-2 [9] was 55.42 pg/mL, the IL-5 [9] was 29.13 pg/mL and the IL-8 [9] was “<= 0 pg/mL”. The IL-10 [9] was 26.12 pg/mL, the TNF-α [9] was 5.35 pg/mL and the TNF-β [9] was 5.79 pg/mL. The “IL-4, IL-6, or IL-12 detected” value (222-2D8, 222-1H12, 222-1C5, 222-2D2, Day 34 supernatants) was “Little or no”, the IFN-γ [10] was 2616 pg/mL and the IL-1β [10] was 2420 pg/mL. The IL-2 [10] was 52 pg/mL, the IL-4 [10] was 41 pg/mL and the IL-5 [10] was 1501 pg/mL. It also gave an IL-10 [10] of 107 pg/mL, a TNF-α [10] of 405 pg/mL and a TNF-β [10] of 243 pg/mL. The IFN-γ [11] was 49.11 pg/mL, the IL-2 [11] was 0 pg/mL and the IL-5 [11] was 0 pg/mL. It also gave an IL-10 [11] of 0 pg/mL, an IL-13 [11] of 146.02 pg/mL and an IL-22 [11] of 21.77 pg/mL. It also gave a TNF-α [11] of 9.36 pg/mL, an IFN-γ [12] of 162.68 pg/mL and an IL-2 [12] of 0 pg/mL. It also gave an IL-5 [12] of 0 pg/mL, an IL-10 [12] of 7.1 pg/mL and an IL-13 [12] of 1050.77 pg/mL. The IL-22 [12] was 25.71 pg/mL, the TNF-α [12] was 65.44 pg/mL and the IFN-γ [13] was 349.76 pg/mL. It also gave an IL-2 [13] of 0 pg/mL, an IL-5 [13] of 128.4 pg/mL and an IL-10 [13] of 16.33 pg/mL. The IL-13 [13] was 2036.36 pg/mL, the IL-22 [13] was 0 pg/mL and the TNF-α [13] was 170.24 pg/mL. The IFN-γ [14] was 0 pg/mL, the IL-2 [14] was 0 pg/mL and the IL-5 [14] was 0 pg/mL. The IL-10 [14] was 1.3 pg/mL, the IL-13 [14] was 29.41 pg/mL and the IL-22 [14] was 42.51 pg/mL. For the same substance, the TNF-α [14] was 0 pg/mL, the IFN-γ [15] was 0 pg/mL and the IL-2 [15] was 0 pg/mL. For the same substance, the IL-5 [15] was 0 pg/mL, the IL-10 [15] was 0 pg/mL and the IL-13 [15] was 133.55 pg/mL. The IL-22 [15] was 51.87 pg/mL, the TNF-α [15] was 0 pg/mL and the IFN-γ [16] was 37.79 pg/mL. The IL-2 [16] was 0 pg/mL, the IL-5 [16] was 94.56 pg/mL and the IL-10 [16] was 0.4 pg/mL. The IL-13 [16] was 1563.22 pg/mL, the IL-22 [16] was 0 pg/mL and the TNF-α [16] was 0 pg/mL. The “IFN-γ production” value (Line 105 (so in the source), Table 14 = 222-1C5, after appropriate dilution of supernatants) was “comparable amounts”.
